In one experiment the target is T1, human lck SH2 domain (Homo sapiens, UniProt P06239).
T1 construct: Cloning and expression of human lck SH2 domain containing tags and an enterokinase proteolytic cleavage site; made in house; host or cells: E. coli AR120
Put plainly: SH2 domain / pY peptide binding assay (ELISA-based, 96 well plate), lck SH2. To be noted: for pKi: Ki calculated from IC50 by the expanded equation, Table II; for pIC50: cloned human SH2 domain fusion protein, 0.1 uM biotinylated pY peptide, Table I. On the procedure:
(§1) The inhibitory activity of compounds at the different human SH2 domains was determined in vitro using SH2 domains expressed as fusion proteins in E. coli. The SH2 domains used herein were the human forms of the src SH2 domain, Grb2 SH2 domain, lck SH2 domain, fyn SH2 domain, SH-PTP2 SH2 domain, p85 SH2 domain and hcp SH2 domain.
(§2) The fusion proteins containing the src, lck and hcp SH2 domains were expressed as the general sequence: DET1-DET2-spacer-ek-SH2, where DETI, DET2, spacer, ek and SH2 are as described below. DET1 ("defined epitope tag 1") (SEQ ID NO: 1) is an 11 amino acid sequence found in the Human Immunodeficiency Virus Type 1 (HIV-1) envelope protein gp120 (or gp160). Monoclonal antibodies to various epitopes of HIV-1 gp120 (or gp160) are known in the art, see, for example U.S. Patent 5,166,050. One preferred example is monoclonal antibody 178.1 (see, e.g., Thiriart et al., J. Immunol., 143:1832-1836 (1989)), which was prepared by immunization of mice with a yeast-expressed HIV-1 gp160 molecule from strain BH10 (Ratner et al., Nature, 313:277-284 (1985)). This tag was used for detection of expression (by Western blot), for purification of the protein (by affinity chromatography), and for configuring assays in which the fusion protein was captured or immobilized using the 178.1 antibody. DET2 is a hexahistidine sequence tag (SEQ ID NO: 2) which binds to nickel-containing resins and was used for purification purposes. Spacer (SEQ ID NO: 3) was utilized to design a BamH1 restriction site at the indicated position of the construct. The term -ekrefers to a recognition sequence (SEQ ID NO: 4) for the enterokinase protease which provides for the optional removal of the tags from the SH2 domain, thus producing an SH2 domain that contains no extraneous amino acids. SH2 domains which contain no extraneous amino acids are preferable to tagged protein for crystallography studies. SH2 refers to the SH2 domains of different proteins.
Cloning and expression of human lck SH2 domain containing tags and an enterokinase proteolytic cleavage site (DET1-DET2-spacer-ek-lck SH2).
A DNA sequence encoding protein ek-lck SH2 was PCR amplified from a cDNA clone containing the human lck gene (Genbank accession number M36881) using the following primers: [formula]
The PCR product was digested with BamHI and XbaI, followed by isolation of the digested fragment on an agarose gel. The fragment was ligated into BamHI-XbaI-digested expression vector containing the tagged chicken src gene DET1-DET2-spacer-SH2 described in Procedure 1 above. In that vector, the BamHI site is located in between the coding regions for DET2 and SH2, and the XbaI site is located after the 3' end of the SH2 coding region. Thus, the ek-lck SH2 sequence replaced the src SH2 sequence in the above vector. The ligation reaction was used to transform E. coli MM294cI^+. The construct containing […] was confirmed by DNA sequencing (SEQ ID NO: 6) and induced in E. coli strain AR120 as described in Procedure 1 above. A Coomassie-Blue-stained, Western-blot-positive induced protein band with an apparent molecular weight of 17,000 was observed after nalidixic acid induction.
Cells were lysed at neutral pH by sonication in the presance of lysozyme. After centrifugation, the soluble extract was chromatographed on a Ni^++NTA column. After washing the column with equilibration buffer (Tris buffer pH 8 containing 0.5 M NaCl) and the same buffer containing 15 mM imidazole, the protein was eluted in highly purified form with 25 mM imidazole in equilibration buffer.
The binding assays for the SH2 domains and pY peptides were performed in an ELISA-based 96 well plate assay. In Millipore 96 well filter plates, hydrophilic Durapore® (pore size 0.65um Cat. No. MADVN6550), was added 2 ul (50% suspension) of Protein-G Sepharose (available from Pharmacia of N.J. Cat. No. 17-0618-01) and either 2 ul of 2 mg/ml of MAB178. […]

A further experiment deals with T2, human hcp SH2 domain (Homo sapiens, UniProt P29350).
T2 sequence (P29350 4-100): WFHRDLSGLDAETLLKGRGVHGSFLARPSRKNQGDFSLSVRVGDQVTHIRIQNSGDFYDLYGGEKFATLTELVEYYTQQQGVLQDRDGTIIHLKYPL
Put plainly: SH2 domain / pY peptide binding assay (ELISA-based, 96 well plate), hcp SH2. On the procedure:
as §1, §2
Cloning and expression of human hcp SH2 domain containing tags and an enterokinase proteolytic cleavage site (DET1-DET2-spacer-ek-hcp SH2).
A DNA sequence encoding protein ek-hcp SH2 was reverse transcriptase-PCR amplified from human fetal liver RNA. RNA isolation used Tri-Reagent (Molecular Research Center Inc.) and the Reverse Transcriptase system (GIBCO-BRL) according to the manufacture's instructions. PCR was carried out using the following primers: [formula]
The PCR product was digested with BglII and XbaI, followed by isolation of the digested fragment on an agarose gel. The fragment was ligated into BamHI-XbaI-digested expression vector containing the tagged human src gene DET1-DET2-spacer-ek-src SH2 described in Procedure 2 above. In that vector, the BamHI site is located in between the coding regions for DET2 and ek, and the XbaI site is located after the 3' end of the SH2 coding region. Thus, the ek-hcp SH2 sequence replaced the ek-src SH2 sequence in the above vector. The ligation reaction was used to transform E. coli MM294cI^+. The construct containing DET1-DET2-spacer-ek-hcp SH2 was confirmed by DNA sequencing (SEQ ID NO: 7) and used to transform E. coli GI698 (Invitrogen Corporation, San Diego, CA). Induction of the phage lambda promoter was induced by addition of tryptophan to the culture medium to 10 mg/ml, per the manufacture's instructions. A Coomassie-Blue-stained, Western-blot-positive induced protein band with an apparent molecular weight of 15,000 was observed after tryptophan induction of cells growing at 30° C.
Cells were lysed at neutral pH by sonication in the presance of lysozyme. After centrifugation, the insoluble pellet was solubilized with 8 M urea in Tris buffer pH 8 and bound onto a Ni^++NTA column. The resin was washed with equilibration buffer (Tris buffer pH 8 containing 0.5 M NaCl, 8 M urea and 5 mM BME) and the same buffer containing 15 mM imidazole. […]
On the technique in general: An ELISA detects its analyte on a solid surface through an enzyme-linked reagent.

[1] abbreviates: cloned human SH2 domain fusion protein; 0.1 uM biotinylated pY peptide; Table I; read-out: Hcp (IC50).

pIC50, pKi: −log10 of the molar value. Like-named read-outs stand apart in the source and are kept apart here. A value given as a limit tells only on which side of the number the result lay.

T1 sequence (P06239 127-224 limits assumed): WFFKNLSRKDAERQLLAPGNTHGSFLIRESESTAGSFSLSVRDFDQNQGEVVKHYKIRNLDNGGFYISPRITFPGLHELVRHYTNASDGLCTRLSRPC

As for “4-acetamido-benzamido-trans-4-methyl-cyclohexyl-N-1-(amino-R-2-(methoxy methyl)-pyrrolidine) carboxamide [Compound 8]”, at human lck SH2 domain, the pKi (in general, −log10 of the Ki, conventionally taken in molar units) is 3.44 and the pIC50 (in general, −log10 of the IC50, conventionally taken in molar units) was 3.90. Besides, the pIC50 at human hcp SH2 domain (setting [1]) was less than 4.00.

Take `Cc1nnc(SCC2=C(C(=O)O)N3C(=O)[C@@H](NC(=O)C(N)c4ccc(C(=O)O)cc4)[C@H]3SC2)s1` (stereo partly drawn) [Compound 1, 7-[D,L-α-Amino-α-(4-carboxyphenyl)acetamido]-3-[2-(5-methyl-1,3,4-thiadiazolyl)thiomethyl]Δ^3-cephem-4-carboxylic Acid]: at human lck SH2 domain, the negative logarithm of the IC50 (pIC50) was 5.22.

Consider `N[C@@H](Cc1cc(Br)c(Oc2ccc(O)c(Cc3ccc(O)nn3)c2)c(Br)c1)C(=O)O` [Compound 2, L-3,5-Dibromo-3'-(6-oxo-3(1H)-pyridazinylmethyl)-thyronine], for which, at human lck SH2 domain, the negative-log Ki (pKi) was less than 3.00 and the negative logarithm of the IC50 (pIC50) was less than 3.52. On human hcp SH2 domain (read-out: Hcp (IC50); cloned human SH2 domain fusion protein; 0.1 uM biotinylated pY peptide; Table I), the negative-log IC50 (pIC50) was 6.05.

As to `Cc1nc2sc3c(c2c2[nH][nH]c(=O)c12)CCC1(C3)OCCO1` [Compound 3, 8,8-Ethylenedioxy-2,3,7,8,9,10-hexahydro-4-methyl-1H-benzo[b]thieno[2,3-b]pyrazolo[3,4-d]pyridin-3-one], the pKi at human lck SH2 domain was 4.96. The pIC50 at human lck SH2 domain was 4.64; at human hcp SH2 domain (setting [1]), 5.92.

Take `Cc1ccc(C(=O)c2ccc(C(=O)c3ccc(CC=O)cc3)cc2)cc1` [Compound 4, 4-[4-(4-Methylbenzoyl)benzoyl]phenylacetaldehyde]: on human lck SH2 domain, the pKi was 3.79 and the pIC50 is 3.79. The negative-log IC50 (pIC50) at human hcp SH2 domain (setting [1]) is 4.52.

As to `Cc1nc2sc3c(c2c2c1c(=O)[nH]n2C)CCC1(C3)OCCO1` [Compound 5, 1,4-Dimethyl-8,8-ethylenedioxy-2,3,7,8,9,10-hexahydro-1H-benzo[b]thieno[2,3-b]pyrazolo[3,4-d]pyridin-3-one], on human lck SH2 domain, the negative logarithm of the Ki (pKi) is 3.83. The negative logarithm of the IC50 (pIC50) on human lck SH2 domain was 4.00; on human hcp SH2 domain (setting [1]) it was 7.00.

For the compound `CCCCCCNC(=O)[C@H]1CC[C@H](CNC(=O)c2ccc([N+](=O)[O-])cc2)CC1` [Compound 7, 4-nitro-benzamido-trans-4-methyl-cyclohexyl-N-hexyl carboxamide], the negative logarithm of the Ki (pKi) on human lck SH2 domain was 3.49. Besides, the pIC50 is 3.42 on human lck SH2 domain and less than 3.52 at human hcp SH2 domain (setting [1]).

Turning to `CCCNC(=O)[C@H]1CC[C@H](CNC(=O)/C=C/c2ccc(C=O)cc2)CC1` [Compound 9, 4-formyl-E-cinnamido-trans-4-methyl-cyclohexyl-N-(propyl) carboxamide], on human lck SH2 domain, the pKi is 3.84 and the negative-log IC50 (pIC50) was 3.70. Further, the pIC50 on human hcp SH2 domain (setting [1]) is 4.92.

With `Cc1nc2sc3c(c2c2[nH][nH]c(=O)c12)CCCC3` [Compound 10, 2,3,7,8,9,10-Hexahydro-4-methyl-1H-benzo[b]thieno[2,3-b]pyrazolo[3,4-d]pyridin-3-one], the negative logarithm of the IC50 (pIC50) at human hcp SH2 domain (setting [1]) was 5.92.
